Patent US10435396B2, “2-substituted indazoles, methods for producing same, pharmaceutical preparations that contain same, and use of same to produce drugs” (Bayer Pharma Aktiengesellschaft, priority 2016, dated 2019)

Tests used:
[1] = target: human IRAK4 (Homo sapiens (Human), UniProt Q9NWZ3); assay: IRAK4 kinase assay (IRAK4 TR-FRET assay); format: biochemical; conditions: 1 mM ATP
Procedure: The IRAK4-inhibitory activity of the substances according to the invention was measured in the IRAK4 TR-FRET assay (TR-FRET=Time Resolved Fluorescence Resonance Energy Transfer) described hereinafter.
Recombinant fusion protein from N-terminal GST (glutathione S-transferase) and human IRAK4, expressed in baculovirus-infected insect cells (Hi5, BTI-TN-5B1-4, cell line purchased from Invitrogen, catalogue No. B855-02) and purified via affinity chromatography, was used as enzyme. The substrate used for the kinase reaction was the biotinylated peptide biotin-Ahx-[…] (C-terminus in amide form) which can be purchased, for example, from Biosyntan GmbH (Berlin-Buch).
For the assay, 11 different concentrations in the range from 20 μM to 0.073 nM were prepared from a 2 mM solution of the test substance in DMSO. 50 nl of the respective solution were pipetted into a black low-volume 384-well microtitre plate (Greiner Bio-One, Frickenhausen, Germany), 2 μl of a solution of IRAK4 in assay buffer [50 mM HEPES pH 7.5, 5 mM MgCl2, 1.0 mM dithiothreitol, 30 μM activated sodium orthovanadate, 0.1% (w/v) of bovine gamma-globulin (BGG) 0.04% (v/v) nonidet-P40 (Sigma)] were added and the mixture was incubated for 15 min to allow prebinding of the substances to the enzyme prior to the kinase reaction. The kinase reaction was then started by addition of 3 μl of a solution of adenosine triphosphate (ATP, 1.67 mM=final concentration in 5 μl of assay volume: 1 mM) and peptide substrate (0.83 μM=final concentration in 5 μl assay volume: 0.5 μM) in assay buffer, and the resulting mixture was incubated at 22° C. for the reaction time of 45 min. The concentration of the IRAK4 was adjusted to the respective activity of the enzyme and set such that the assay was carried out in the linear range. Typical concentrations were in the order of about 0.2 nM. The reaction was stopped by addition of 5 μl of a solution of TR-FRET detection reagents [0.1 μM streptavidin-XL665 (Cisbio Bioassays; France, catalogue No. 610SAXLG)] and 1.5 nM anti-phosphoserine antibody [Merck Millipore, “STK Antibody”, catalogue No. 35-002] and 0.6 nM LANCE EU-W1024-labelled anti-mouse-IgG antibody (Perkin-Elmer, product No. AD0077; alternatively, it is possible to use a terbium cryptate-labelled anti-mouse-IgG antibody from Cisbio Bioassays) in aqueous EDTA solution (100 mM EDTA, 0.4% [w/v] bovine serum albumin [BSA] in 25 mM HEPES pH 7.5).
The resulting mixture was incubated at 22° C. for 1 h to allow formation of a complex of the biotinylated phosphorylated substrate and the detection reagents. The amount of the phosphorylated substrate was then evaluated by measuring the resonance energy transfer from europium chelate-labelled anti-mouse-IgG antibody to streptavidin-XL665. To this end, the fluorescence emissions at 620 nm and 665 nm were measured after excitation at 350 nm in a TR-FRET measuring instrument, for example a Rubystar (BMG Labtechnologies, Offenburg, Germany) or a Viewlux (Perkin-Elmer). The ratio of the emissions at 665 nm and 622 nm was taken as a measure of the amount of phosphorylated substrate. The data were normalized (enzyme reaction without test substance=0% inhibition; all other assay components but no enzyme=100% inhibition). Typically, the test substances were tested on the same microtitre plates at 11 different concentrations in the range from 20 μM to 0.073 nM (20 μM, 5.7 μM, 1.6 μM, 0.47 μM, 0.13 μM, 38 nM, 11 nM, 3.1 nM, 0.89 nM, 0.25 nM and 0.073 nM). The dilution series were prepared prior to the assay (2 mM to 7.3 nM in 100% DMSO) by serial dilutions. The IC50 values were calculated using a 4-parameter fit.

[2] = system: human PBMCs; assay: In vitro LPS-induced cytokine production in human PBMCs; format: cell-based; conditions: 0.1 μg/ml LPS, 24 hours
Procedure: In Vitro LPS (Lipopolysaccharide)-Induced Cytokine Production in Human PBMCs (Peripheral Blood Mononuclear Cells)
The effect of the inventive compounds of the general formula (I) on induced cytokine production in human PBMCs was examined. Cytokine production was induced here by LPS, a TLR4 ligand, which leads to activation of the IRAK4-mediated signal path.
The human PBMCs were obtained from anti-coagulated human whole blood. To this end, 15 ml of Ficoll-Paque (Biochrom, Cat. No. L6115) were initially charged in Leucosep tubes and 20 ml of human blood were added. After centrifugation of the blood at 800 g for 15 min at room temperature, the plasma including the platelets was removed and discarded. The PBMCs were transferred into centrifugation tubes and made up with PBS (phosphate-buffered saline) (Gibco, Cat. No. 14190). The cell suspension was centrifuged at room temperature at 250 g for 10 min and the supernatant was discarded. The PBMCs were resuspended in complete medium (RPMI 1640, without L-glutamine (PAA, Cat. No. E15-039), 10% FCS; 50 U/ml penicillin, 50 μg/ml streptomycin (PAA, Cat. No. P11-010) and 1% L-glutamine (Sigma, Cat. No. G7513)).
The assay was also carried out in complete medium. The PBMCs were sown in 96-well plates at a cell density of 2.5×10^5 cells/well. The compounds according to the invention were subjected to serial dilution in a constant volume of 100% DMSO and used in the assay at 8 different concentrations in the range from 10 μM to 3 nM such that the final DMSO concentration was 0.4% DMSO. Prior to the actual stimulation, the cells were then pre-incubated therewith for 30 min. […] Cell viability was determined using the CellTiter-Glo luminescent assay (Promega, Cat. No. G7571 (G755/G756A)) in accordance with the manufacturer's instructions. The amount of secreted TNF-α in the cell culture supernatant was determined using the Human ProInflammatory 9-Plex Tissue Culture Kit (MSD, Cat. No. K15007B) in accordance with the instructions of the manufacturer. […]

human IRAK4, sequence (Q9NWZ3 whole entry): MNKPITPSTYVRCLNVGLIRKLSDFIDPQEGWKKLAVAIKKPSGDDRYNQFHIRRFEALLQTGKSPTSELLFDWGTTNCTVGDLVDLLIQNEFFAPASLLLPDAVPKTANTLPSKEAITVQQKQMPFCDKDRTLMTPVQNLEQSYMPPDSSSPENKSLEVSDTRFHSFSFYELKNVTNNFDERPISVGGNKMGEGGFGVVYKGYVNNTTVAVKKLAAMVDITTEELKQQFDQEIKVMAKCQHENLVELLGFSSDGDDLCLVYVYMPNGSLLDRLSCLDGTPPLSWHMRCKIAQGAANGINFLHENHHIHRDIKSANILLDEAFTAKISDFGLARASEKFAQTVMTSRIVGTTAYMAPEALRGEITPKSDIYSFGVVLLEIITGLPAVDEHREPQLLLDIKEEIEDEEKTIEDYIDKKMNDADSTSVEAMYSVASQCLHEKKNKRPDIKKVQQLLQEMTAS

COc1cc2nn(C3CCN(CCC(C)(C)O)CC3)cc2cc1NC(=O)c1cccc(C(F)(F)F)n1 [Example 52, N-{2-[1-(3-Hydroxy-3-methylbutyl)piperidin-4-yl]-6-methoxy-2H-indazol-5-yl}-6-(trifluoromethyl)pyridine-2-carboxamide] was tested, and the IC50 [1] was 1 nM and the “activity (secreted TNF-α, LPS-induced cytokine production in human PBMCs)” value [2] was ≤ 1 µM.
